{"source": "patent US8212038B2", "about": "“Methods and compositions for controlling ectoparasites” (HatchTech Pty Ltd., priority 2003, dated 2012)", "key": {"[1]": {"system": "proteases in the egg shell washings (ESW) of lice eggs", "experiment": "Gelatine substrate SDS-PAGE of egg shell washings treated with protease inhibitors", "assay_type": "biochemical, Pediculus humanus humanus", "conditions": "37° C., 3 hrs", "experimental": "Within 12 hours of hatching 50 body lice eggs (Pediculus humanus humanus) were removed from the hair and placed in a 1 ml eppendorf tube. 20 μL of distilled water was added to the unhatched eggs and the preparation incubated for 30 minutes at 32° C. The 20 μL was recovered, freeze dried and stored at −70° C. A number of other samples were also collected as described. Hair samples from which unhatched lice eggs had been removed were also collected and incubated as described above. In addition, a sample of unhatched eggs and a sample of hair from which lice eggs had been removed were collected 7 days post laying (within 24 hrs of egg hatching). Both samples were washed in 10 mls of a 1% solution of sodium hypochlorite for 1 minute followed by a 5×1 minute washes in 25 mls in distilled water to remove the hypochlorite. These samples were then incubated in […] of distilled water as described above. In addition, a group of 25 lice eggs that were within 24 hours of hatching, were pretreated with 1% sodium hypochlorite, washed as described above and left to hatch. Within 1-2 hours after hatching the empty egg shells were incubated in 20 μL of distilled water as described above, the washings collected from the hatched egg shells and stored at −70° C. All of the extract samples were then freeze-dried overnight. The freeze-dried samples were then resuspended in […] of non-reducing SDS sample buffer, centrifuged at 10,000 g for 2 minutes and the entire 15 μL loaded on to 10% gelatine substrate SDS-PAGE gels. Gels were run at 4° C. for 10 minutes at 10 mA followed by a further 25 minutes at 15 mA per gel. They were then incubated for 2×20 minutes in a 2.5% Triton-X 100 solution followed by a three hour incubation in 0.1M Tris/HCl containing 1 mM CaCl2 pH 8.0. Activity was detected as clear areas on the gel the result of protease activity degrading the gelatine within the gel.\n10% SDS-PAGE gelatine substrate gels were loaded with freeze dried egg shell washings from 100 lice eggs that had been resuspended in 50 μl of non-reducing sample buffer with samples run at 10 μl per lane. Gels were run at 4° C. for 10 minutes at 10 mA per gel followed by a further 25 minutes at 15 mA per gel. Gels were then cut into strips and each strip incubated for 2×20 minutes in a 2.5% Triton-X 100 solution containing a specific inhibitor. The inhibitors used were the serine protease inhibitor PMSF (5 mM), the metalloprotease inhibitor 1,10-phenanthroline (10 mM), the aspartic protease Pepstatin (5 μM) and the cysteine inhibitor E-64 (10 μM). The gel strips were then incubated in 0.1M Tris/HCl containing 1 mM CaCl2 pH 8 containing the different protease inhibitors for 3 hrs at 37° C., before being stained in Coomassie blue and destained as previously described."}, "lice eggs [2]": {"system": "lice eggs", "experiment": "Lice egg-hatching bioassay, eggs treated once 5 days post laying", "assay_type": "in vivo, Pediculus humanus humanus", "experimental": "To evaluate the potential effects of protease inhibitors on lice egg hatching it was necessary to develop a reliable in vitro bioassay. Male and female clothing lice were fed on a rabbit as previously described. […] During this period the female lice laid their eggs and attached them to the woven cloth. All lice would then be removed and the eggs permitted to incubate for the following 5 days. […] The eggs would then progress through to their final stages of development and hatch. In untreated control eggs a reliable average percentage hatch of between 85-95 percent was obtained using the in vitro egg hatch assay. […] Lice eggs were laid onto cloth as described above. […] Protease inhibitor solutions were typically prepared as stock solutions and added fresh at the appropriate concentration. Specifically stock solutions were prepared as follows: 1,10-phenanthroline (200 mM in methanol) and Bestatin (5 mg/ml in methanol). In addition, the equivalent levels of the solvent were added to the non-inhibitor containing controls eggs to test for any buffer alone effects. Percentage hatch inhibition was calculated as the percentage reduction in egg hatch compared to the untreated control."}, "lice eggs [3]": {"system": "lice eggs", "experiment": "Time course in vitro lice egg hatching assay", "assay_type": "in vivo, Pediculus humanus humanus"}, "[4]": {"system": "head lice egg (Pediculus humanus capitus)", "experiment": "Head lice egg hatching time course", "assay_type": "in vivo", "conditions": "10 mM", "experimental": "Tests were carried out to determine if metal chelating agent and metalloprotease inhibitor 1,10-phenanthroline could inhibit head lice egg (Pediculus humanus capitus) hatching as opposed to body lice. Head lice eggs were obtained by placing groups of both 1-2 adult male and 6-8 adult female head lice in separate wells in a 24 well petri dish containing cotton cloth. The petri dish was transferred to a humid incubator at 32° C., 70% RH for 12 hours to permit the female lice to lay their eggs. After 12 hours, all adult lice were removed from the petri dish wells and a series of time-course experiments conducted. A group of eggs (24 hr old) was treated for 10 minutes with 200 μl of a 10 mM solution of 1,10-phenanthroline. A control (i.e., no inhibitor treatment) group of eggs was also included. The eggs were removed from the inhibitor, blotted dry on tissue paper, placed at 32° C., 70% RH and left to hatch. A second group of eggs, (48 hr old) were treated as previously described and also left to hatch. This process was repeated at 24 hr intervals on head lice eggs up to 120 hr post laying. This method of assaying inhibitors more closely mirrors the field situation where lice eggs will be at various stages of development on the head and permits the inhibitory effects to be observed on these different stages of the parasite."}, "lice eggs [5]": {"system": "lice eggs", "experiment": "Standard lice egg-hatching assay with commercial head lice products", "assay_type": "in vivo", "conditions": "across the different stages of lice egg hatching (24-120 hr post laying)", "experimental": "These three products were tested according to manufacturer's recommendations. Groups of eggs (24 hr old) were treated with the different products according to manufacturer's recommendations for the appropriate period of time (5-10 minutes) followed by a rinse for 1-2 minutes in 32° C. water. A positive controls (10 mM 1,10-phenanthroline) and two negative controls (no treatment and 20% Methanol) were also incorporated. Post exposure to the different products, the eggs were rinsed with warm water at 32° C. before being blotted dry on tissue paper and placed at 32° C., 70% RH and left to hatch. A second group of eggs, (48 hr old) were treated as previously described and also left to hatch. This process was repeated at 24 hr intervals on head lice eggs up to 120 hr post laying. This method of assaying inhibitors more closely mirrors the field situation where lice eggs will be at various stages of development on the head and permits the inhibitory effects to be observed on these different stages of the parasite.\nThese two products were tested according to manufacturer's recommendations. Groups of eggs (24 hr old) were treated with the different products according to manufacturer's recommendations for the appropriate period of time (5-10 minutes) followed by a rinse for 1-2 minutes in 32° C. water. Two negative controls (no treatment and 20% ethanol) were also incorporated. […]"}, "[6]": {"system": "Plutella xylostella eggs (Waite strain)", "experiment": "Egg hatch of Plutella xylostella after dipping in inhibitor", "conditions": "10 mM", "procedure": "The egg masses were then placed in a humid box at 25 degrees until egg hatch. Control eggs were exposed to absolute methanol as described above. At day 6 post laying the eggs were assessed from the different treatments and the percentage of egg hatch determined relative to the control as shown in Table 9.\nBatches of Plutella eggs that were laid on either fine cloth or parafilm were dipped in a specific inhibitor solution for between 2-10 seconds, the excess solution was drained by blotting with dry tissue paper. The egg masses were then placed in a humid box at 25 degrees until egg hatch. Control eggs were exposed to absolute methanol as described above or not treated.\nThe egg masses were then placed in a humid box at 25 degrees until egg hatch. Control eggs were exposed to absolute ethanol as described above. On day 6 post laying the eggs were assessed from the different treatments and the percentage of egg hatch determined relative to the control."}, "[7]": {"system": "Helicoverpa armigera eggs (Tatura×Toowoomba strains)", "experiment": "Egg hatch of Helicoverpa armigera after exposure to inhibitor", "conditions": "10 mM", "procedure": "Several hundred Helicoverpa armigera eggs (Tatura×Toowoomba strains) were collected, that had been laid on fine mesh cloth over a 24 hour period.\nBatches of Helicoverpa eggs were exposed to a specific inhibitor solution for between 2-10 seconds the excess solution drained by blotting with dry tissue paper. The egg masses were then placed in a humid box at 25 degrees until egg hatch. Control eggs were exposed to absolute methanol as described above."}, "[8]": {"conditions": "added within 24 hours of hatching, data not shown"}}, "note": "“Also recorded” adds a separate entry of the source. Square brackets hold non-standard residues; d marks the D form. Peptide text beside a SMILES is read from it. * marks the point of attachment. Sta = CC(C)C[C@H](N)[C@@H](O)CC(=O)O; Isovaleryl = CC(C)CC(=O)*", "data": [{"smiles": "c1cnc2c(c1)ccc1cccnc12", "note": "[1,10-phenanthroline, reference compound]", "values": [{"measurement": "protease activity of ESW on gelatine SDS-PAGE after inhibitor treatment", "setting": "[1]; 10 mM inhibitor", "result": "significant reduction in protease activity"}, {"measurement": "inhibition of egg hatching in lice (in words)", "setting": "lice eggs [2]; 10 mM, eggs treated 5 days post laying", "result": "significantly inhibited egg hatching"}, {"measurement": "inhibition of egg hatching in lice (in words)", "setting": "lice eggs [2]; [8]", "result": "variable inhibition of egg hatching"}, {"measurement": "inhibition of lice egg hatching (in words)", "setting": "lice eggs [3]; 10 mM, following washing of eggs in water", "result": "still highly efficacious at inhibiting lice egg hatching"}, {"measurement": "inhibition of lice egg hatching (in words)", "setting": "lice eggs [3]; varying concentrations (10, 5, 2.5 mM) over the time course", "result": "Significant inhibition; also recorded: significantly inhibit egg hatching in lice at all time points examined"}, {"measurement": "inhibition of egg hatching in head lice (in words)", "setting": "[4]", "result": "significantly inhibit egg hatching in head lice"}, {"measurement": "ovicidal activity (in words)", "setting": "lice eggs [5]", "result": "highly effective at inhibiting lice egg hatching"}, {"measurement": "inhibition of egg hatching in Plutella xylostella (in words)", "setting": "[6]", "result": "significantly inhibit egg hatching"}, {"measurement": "inhibition of egg hatching of Helicoverpa armigera (in words)", "setting": "[7]", "result": "able to inhibit egg hatching at 10 mM only"}]}, {"smiles": "CC(C)C[C@H](NC(=O)[C@@H](O)[C@H](N)Cc1ccccc1)C(=O)O", "note": "[Bestatin, reference compound]", "values": [{"measurement": "inhibition of egg hatching in lice (in words)", "setting": "lice eggs [2]; 5 mM, eggs treated 5 days post laying", "result": "significantly inhibit lice egg hatching"}, {"measurement": "inhibition of egg hatching in lice (in words)", "setting": "lice eggs [2]; [8]", "result": "variable inhibition of egg hatching"}, {"measurement": "inhibition of lice egg hatching (in words)", "setting": "lice eggs [3]; 5 mM, time course", "result": "significant inhibition, but only when applied approximately 24 hrs prior to egg hatch; also recorded: partially inhibit lice egg hatching"}]}, {"smiles": "CC(C)C[C@H](NC(=O)[C@H]1O[C@@H]1C(=O)O)C(=O)NCCCCN=C(N)N", "note": "[E64]", "values": [{"measurement": "protease activity of ESW on gelatine SDS-PAGE after inhibitor treatment", "setting": "[1]; 10 μM inhibitor", "result": "No reduction in protease activity"}]}, {"smiles": "O=S(=O)(F)Cc1ccccc1", "note": "[PMSF]", "values": [{"measurement": "protease activity of ESW on gelatine SDS-PAGE after inhibitor treatment", "setting": "[1]; 5 mM inhibitor", "result": "No reduction in protease activity"}]}, {"smiles": "CC(C)CC(=O)N[C@H](C(=O)N[C@H](C(=O)N[C@@H](CC(C)C)[C@@H](O)CC(=O)N[C@@H](C)C(=O)N[C@@H](CC(C)C)[C@@H](O)CC(=O)O)C(C)C)C(C)C", "note": "[pepstatin] (Isovaleryl-VV[Sta]A[Sta]-OH)", "values": [{"measurement": "protease activity of ESW on gelatine SDS-PAGE after inhibitor treatment", "setting": "[1]; 5 μM inhibitor, data not shown", "result": "did not show any reduction in protease activity; also recorded: No reduction in protease activity"}]}]}
